Where a SMILES comes first, the peptide text is derived from it. Bridges are numbered along the chain shown (N, C = ends). [ ]: non-standard residue; d: D form. ξ: configuration not given here. Hyp = O=C(O)[C@@H]1C[C@@H](O)CN1; NMehSer = CN[C@@H](CCO)C(=O)O; NMeNle = CCCC[C@H](NC)C(=O)O; dNle = CCCC[C@@H](N)C(=O)O; NMeA = CN[C@@H](C)C(=O)O; Orn = NCCC[C@H](N)C(=O)O; Dab = NCC[C@H](N)C(=O)O; Dap = NC[C@H](N)C(=O)O; ξC = NC(CS)C(=O)O
These compounds were tested against T1, Human PD-L1/PD-1 (Homo sapiens, UniProt Q9NZQ7) (assay: HTRF Human PD-L1/PD-1 binding assay (PD-1-Ig/PD-L1-His)). Conditions: PD-L1-His 10 nM, PD-1-Ig 20 nM; class symbol; read-out: HTRF Human PD-L1/PD-1 Binding Assay IC50 Range.
T1 construct: TVMV protease cleavage site (C); made in house; host or cells: HEK293T cells
T1 sequence (Q9NZQ7 with tags, fused parts or gaps): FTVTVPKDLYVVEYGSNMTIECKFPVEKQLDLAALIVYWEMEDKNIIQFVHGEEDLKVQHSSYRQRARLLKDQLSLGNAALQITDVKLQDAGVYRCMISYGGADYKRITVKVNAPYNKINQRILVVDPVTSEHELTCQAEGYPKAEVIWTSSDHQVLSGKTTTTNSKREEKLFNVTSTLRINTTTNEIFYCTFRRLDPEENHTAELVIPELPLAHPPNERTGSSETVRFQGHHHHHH
Method in brief: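 HTRF read-out (665/620 nm ratio) after 30 min equilibration with Eu-cryptate anti-Ig mAb (1 nM) and APC anti-His mAb (20 nM). Peptides preincubated 15 min with PD-L1-His (10 nM), then PD-1-Ig (20 nM) added for 15 min.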

SMILES	IC50 [nM]
CCCC[C@H]1NC(=O)[C@H](Cc2c[nH]c3ccccc23)NC(=O)[C@H](CO)NC(=O)[C@H](Cc2c[nH]c3ccccc23)NC(=O)[C@@H]2C[C@@H](O)CN2C(=O)[C@H](CCCN)NC(=O)[C@H](Cc2cnc[nH]2)NC(=O)[C@@H]2CCCN2C(=O)[C@H](CC(N)=O)NC(=O)[C@H](C)N(C)C(=O)[C@H](Cc2ccc(O)cc2)NC(=O)CSCC(C(=O)NCC(N)=O)NC(=O)[C@H](CCC(=O)O)NC(=O)[C@H](CCCC)N(C)C1=O (stereo partly drawn) [Example 10129] ({CH2CO}-Y[NMeA]NPH[Orn][Hyp]WSW[dNle][NMeNle]E[ξC]G-NH2; thioether N-14)	1000 to 10000
CCCC[C@H]1NC(=O)[C@H](Cc2c[nH]c3ccccc23)NC(=O)[C@H](CO)NC(=O)[C@H](Cc2c[nH]c3ccccc23)NC(=O)[C@@H]2C[C@@H](O)CN2C(=O)[C@H](CCCN)NC(=O)[C@H](Cc2cnc[nH]2)NC(=O)[C@@H]2CCCN2C(=O)[C@H](CC(=O)O)NC(=O)[C@H](C)N(C)C(=O)[C@H](Cc2ccc(O)cc2)NC(=O)CSCC(C(=O)NCC(N)=O)NC(=O)[C@H](CCC(=O)O)NC(=O)[C@H](CCCC)N(C)C1=O (stereo partly drawn) [Example 10130] ({CH2CO}-Y[NMeA]DPH[Orn][Hyp]WSW[dNle][NMeNle]E[ξC]G-NH2; thioether N-14)	1000 to 10000
CCCC[C@H]1NC(=O)[C@H](Cc2c[nH]c3ccccc23)NC(=O)[C@H](CO)NC(=O)[C@H](Cc2c[nH]c3ccccc23)NC(=O)[C@@H]2C[C@@H](O)CN2C(=O)[C@H](CC(C)C)NC(=O)[C@H](Cc2cnc[nH]2)NC(=O)[C@@H]2CCCN2C(=O)[C@H](CC(=O)O)NC(=O)[C@H](C)N(C)C(=O)[C@H](Cc2ccc(O)cc2)NC(=O)CSCC(C(=O)NCC(N)=O)NC(=O)[C@H](CCC(=O)O)NC(=O)[C@H](CCCC)N(C)C1=O (stereo partly drawn) [Example 10132] ({CH2CO}-Y[NMeA]DPHL[Hyp]WSW[dNle][NMeNle]E[ξC]G-NH2; thioether N-14)	100 to 990
CCCC[C@H]1C(=O)N[C@@H](CC(C)C)C(=O)N[C@H](C(=O)NCC(N)=O)CSCC(=O)N[C@@H](Cc2ccc(O)cc2)C(=O)N(C)[C@@H](C)C(=O)N[C@@H](CCN)C(=O)N2CCC[C@H]2C(=O)N[C@@H](Cc2c[nH]cn2)C(=O)N[C@@H](CCC(=O)O)C(=O)N2C[C@H](O)C[C@H]2C(=O)N[C@@H](Cc2c[nH]c3ccccc23)C(=O)N[C@@H](CO)C(=O)N[C@@H](Cc2c[nH]c3ccccc23)C(=O)N(C)[C@@H](CCOC)C(=O)N1C [Example 10140] ({CH2CO}-Y[NMeA][Dab]PHE[Hyp]WSW[NMehSer](Me)[NMeNle]LCG-NH2; thioether N-14)	10 to 99.9
CCCC[C@H]1C(=O)N[C@@H](CCC(=O)O)C(=O)N[C@H](C(=O)NCC(N)=O)CSCC(=O)N[C@@H](Cc2ccc(O)cc2)C(=O)N(C)[C@@H](C)C(=O)N[C@@H](CC(N)=O)C(=O)N2CCC[C@H]2C(=O)N[C@@H](Cc2c[nH]cn2)C(=O)N[C@@H](CCC(N)=O)C(=O)N2C[C@H](O)C[C@H]2C(=O)N[C@@H](Cc2c[nH]c3ccccc23)C(=O)N[C@@H](CO)C(=O)N[C@@H](Cc2c[nH]c3ccccc23)C(=O)N(C)[C@@H](CCOC)C(=O)N1C [Example 10141] ({CH2CO}-Y[NMeA]NPHQ[Hyp]WSW[NMehSer](Me)[NMeNle]ECG-NH2; thioether N-14)	10 to 99.9
CCCC[C@H]1C(=O)N(C)[C@@H](CCOC)C(=O)N[C@@H](CCC(=O)O)C(=O)N[C@H](C(=O)NCC(N)=O)CSCC(=O)N[C@@H](Cc2ccc(O)cc2)C(=O)N(C)[C@@H](C)C(=O)N[C@@H](CC(=O)O)C(=O)N2CCC[C@H]2C(=O)N[C@@H](Cc2c[nH]cn2)C(=O)N[C@@H](CCC(N)=O)C(=O)N2C[C@H](O)C[C@H]2C(=O)N[C@@H](Cc2c[nH]c3ccccc23)C(=O)N[C@@H](CO)C(=O)N[C@@H](Cc2c[nH]c3ccccc23)C(=O)N1C [Example 10142] ({CH2CO}-Y[NMeA]DPHQ[Hyp]WSW[NMeNle][NMehSer](Me)ECG-NH2; thioether N-14)	10 to 99.9
CCCC[C@H]1C(=O)N(C)[C@@H](CCOC)C(=O)N[C@@H](CC(C)C)C(=O)N[C@H](C(=O)NCC(N)=O)CSCC(=O)N[C@@H](Cc2ccc(O)cc2)C(=O)N(C)[C@@H](C)C(=O)N[C@@H](CCN)C(=O)N2CCC[C@H]2C(=O)N[C@@H](Cc2c[nH]cn2)C(=O)N[C@@H](CCC(=O)O)C(=O)N2C[C@H](O)C[C@H]2C(=O)N[C@@H](Cc2c[nH]c3ccccc23)C(=O)N[C@@H](CO)C(=O)N[C@@H](Cc2c[nH]c3ccccc23)C(=O)N1C [Example 10146] ({CH2CO}-Y[NMeA][Dab]PHE[Hyp]WSW[NMeNle][NMehSer](Me)LCG-NH2; thioether N-14)	10 to 99.9

The remaining lines, values ahead:

IC50 [nM]	SMILES
1 to 9.9	CCCC[C@H]1C(=O)N[C@@H](CCC(=O)O)C(=O)N[C@H](C(=O)NCC(N)=O)CSCC(=O)N[C@@H](Cc2ccc(O)cc2)C(=O)N(C)[C@@H](C)C(=O)N[C@@H](CC(=O)O)C(=O)N2CCC[C@H]2C(=O)N[C@@H](Cc2c[nH]cn2)C(=O)N[C@@H](CCC(N)=O)C(=O)N2C[C@H](O)C[C@H]2C(=O)N[C@@H](Cc2c[nH]c3ccccc23)C(=O)N[C@@H](CO)C(=O)N[C@@H](Cc2c[nH]c3ccccc23)C(=O)N(C)[C@@H](CCOC)C(=O)N1C [Example 10136] ({CH2CO}-Y[NMeA]DPHQ[Hyp]WSW[NMehSer](Me)[NMeNle]ECG-NH2; thioether N-14)
10 to 99.9	CCCC[C@H]1C(=O)N[C@@H](CC(C)C)C(=O)N[C@H](C(=O)NCC(N)=O)CSCC(=O)N[C@@H](Cc2ccc(O)cc2)C(=O)N(C)[C@@H](C)C(=O)N[C@@H](CC(N)=O)C(=O)N2CCC[C@H]2C(=O)N[C@@H](Cc2c[nH]cn2)C(=O)N[C@@H](CCC(N)=O)C(=O)N2C[C@H](O)C[C@H]2C(=O)N[C@@H](Cc2c[nH]c3ccccc23)C(=O)NCC(=O)N[C@@H](Cc2c[nH]c3ccccc23)C(=O)N(C)[C@@H](CCOC)C(=O)N1C [Example 10137] ({CH2CO}-Y[NMeA]NPHQ[Hyp]WGW[NMehSer](Me)[NMeNle]LCG-NH2; thioether N-14)
1 to 9.9	CCCC[C@H]1C(=O)N[C@@H](CN)C(=O)N[C@H](C(=O)NCC(N)=O)CSCC(=O)N[C@@H](Cc2ccc(O)cc2)C(=O)N(C)[C@@H](C)C(=O)N[C@@H](CC(=O)O)C(=O)N2CCC[C@H]2C(=O)N[C@@H](Cc2c[nH]cn2)C(=O)N[C@@H](CCC(N)=O)C(=O)N2C[C@H](O)C[C@H]2C(=O)N[C@@H](Cc2c[nH]c3ccccc23)C(=O)N[C@@H](CO)C(=O)N[C@@H](Cc2c[nH]c3ccccc23)C(=O)N(C)[C@@H](CCOC)C(=O)N1C [Example 10139] ({CH2CO}-Y[NMeA]DPHQ[Hyp]WSW[NMehSer](Me)[NMeNle][Dap]CG-NH2; thioether N-14)
1 to 9.9	CCCC[C@H]1C(=O)N(C)[C@@H](CCOC)C(=O)N[C@@H](CO)C(=O)N[C@H](C(=O)NCC(N)=O)CSCC(=O)N[C@@H](Cc2ccc(O)cc2)C(=O)N(C)[C@@H](C)C(=O)N[C@@H](CC(N)=O)C(=O)N2CCC[C@H]2C(=O)N[C@@H](Cc2c[nH]cn2)C(=O)N[C@@H](CCC(N)=O)C(=O)N2C[C@H](O)C[C@H]2C(=O)N[C@@H](Cc2c[nH]c3ccccc23)C(=O)N[C@@H](CO)C(=O)N[C@@H](Cc2c[nH]c3ccccc23)C(=O)N1C [Example 10144] ({CH2CO}-Y[NMeA]NPHQ[Hyp]WSW[NMeNle][NMehSer](Me)SCG-NH2; thioether N-14)
1 to 9.9	CCCC[C@H]1C(=O)N(C)[C@@H](CCOC)C(=O)N[C@@H](CN)C(=O)N[C@H](C(=O)NCC(N)=O)CSCC(=O)N[C@@H](Cc2ccc(O)cc2)C(=O)N(C)[C@@H](C)C(=O)N[C@@H](CC(=O)O)C(=O)N2CCC[C@H]2C(=O)N[C@@H](Cc2c[nH]cn2)C(=O)N[C@@H](CCC(N)=O)C(=O)N2C[C@H](O)C[C@H]2C(=O)N[C@@H](Cc2c[nH]c3ccccc23)C(=O)N[C@@H](CO)C(=O)N[C@@H](Cc2c[nH]c3ccccc23)C(=O)N1C [Example 10145] ({CH2CO}-Y[NMeA]DPHQ[Hyp]WSW[NMeNle][NMehSer](Me)[Dap]CG-NH2; thioether N-14)

Same assay, conditions: PD-L1-His 10 nM, PD-1-Ig 20 nM; read-out: HTRF Human PD-L1/PD-1 Binding Assay IC50

IC50 [nM]	SMILES
2900	CCCC[C@H]1NC(=O)[C@H](Cc2c[nH]c3ccccc23)NC(=O)[C@H](CO)NC(=O)[C@H](Cc2c[nH]c3ccccc23)NC(=O)[C@@H]2C[C@@H](O)CN2C(=O)[C@H](CC(C)C)NC(=O)[C@H](Cc2cnc[nH]2)NC(=O)[C@@H]2CCCN2C(=O)[C@H](CC(N)=O)NC(=O)[C@H](C)N(C)C(=O)[C@H](Cc2ccc(O)cc2)NC(=O)CSCC(C(=O)NCC(N)=O)NC(=O)[C@H](CCC(=O)O)NC(=O)[C@H](CCCC)N(C)C1=O (stereo partly drawn) [Example 10131]
180	CCCC[C@H]1C(=O)N[C@@H](CO)C(=O)N[C@H](C(=O)NCC(N)=O)CSCC(=O)N[C@@H](Cc2ccc(O)cc2)C(=O)N(C)[C@@H](C)C(=O)N[C@@H](CC(N)=O)C(=O)N2CCC[C@H]2C(=O)N[C@@H](Cc2c[nH]cn2)C(=O)N[C@@H](CCC(N)=O)C(=O)N2C[C@H](O)C[C@H]2C(=O)N[C@@H](Cc2c[nH]c3ccccc23)C(=O)N[C@@H](CO)C(=O)N[C@@H](Cc2c[nH]c3ccccc23)C(=O)N(C)[C@@H](CCOC)C(=O)N1C [Example 10138] ({CH2CO}-Y[NMeA]NPHQ[Hyp]WSW[NMehSer](Me)[NMeNle]SCG-NH2; thioether N-14)
10.9	CCCC[C@H]1C(=O)N(C)[C@@H](CCOC)C(=O)N[C@@H](CC(C)C)C(=O)N[C@H](C(=O)NCC(N)=O)CSCC(=O)N[C@@H](Cc2ccc(O)cc2)C(=O)N(C)[C@@H](C)C(=O)N[C@@H](CC(N)=O)C(=O)N2CCC[C@H]2C(=O)N[C@@H](Cc2c[nH]cn2)C(=O)N[C@@H](CCC(N)=O)C(=O)N2C[C@H](O)C[C@H]2C(=O)N[C@@H](Cc2c[nH]c3ccccc23)C(=O)NCC(=O)N[C@@H](Cc2c[nH]c3ccccc23)C(=O)N1C [Example 10143] ({CH2CO}-Y[NMeA]NPHQ[Hyp]WGW[NMeNle][NMehSer](Me)LCG-NH2; thioether N-14)
